Where two headings read alike, the source gives them in different places.
Key:
Assay type in all cases: in vivo
[1] = tested on: house flies, Musca domestica; test: whole plant or invertebrate; details: read-out: House flies LD50
Method: In another series of tests, stock 1% concentrated solutions of each of the test compounds of Table I below, and of the commercial related carbamate ester insecticides methomyl, carbofuran and oxamyl, were made in acetone, and such solutions were diluted with acetone to a concentration of 0.001-0.8%. House flies were treated topically on the notum by 1 μl of each of the diluted acetone solutions and percent mortality was counted 24 hours after application.

[2] = Mammalian toxicity, oral, Swiss white mice (LD50); details: mouse, in vivo, propylene glycol carrier
Method: (§1) For mice toxicity, the compound was dissolved in propyleneglycol or corn oil as a carrier and all compounds were tested at the level up to 1,000 mg/kg. All of the above noted compounds tested were lower in toxicity as compared with the parent compounds.
(§2) Mammalian toxicity was determined against Swiss white mice.

Swiss white mice = test: Mammalian toxicity, oral, Swiss white mice (LD50); details: propylene glycol carrier
Method: as §1, §2

[3] = topical on the notum, 1 μl of 0.001-0.8% acetone solutions, 24 hours, 60° F

Row | Compound | LD50 ([1]; topical, 24 h) [mg/kg] | LD50 [2] [mg/kg] | LD50 [1, 3] [mg/kg] | Mice LD50 (Swiss white mice)
1 | CN(C(=O)Oc1cccc2c1OC(C)(C)C2)S(=O)OCCCOS(=O)N(C)C(=O)Oc1cccc2c1OC(C)(C)C2 (stereo not drawn) [Example II, N,N'-(1,3-Propanedioxysulfinyl)-bis (2,3-dihydro-2,2-dimethylbenzofuranyl-7 methylcarbamate)] | 17 | 92 | – | –
2 | C=CCOC(COS(=O)N(C)C(=O)ON=C(C)SC)COS(=O)N(C)C(=O)ON=C(C)SC (stereo not drawn) [XII, N,N'-(2-Allyloxy-1,3-propanedioxysulfinyl)-bis (S-methyl N-methylcarbamoyloxythioacetimidate)] | – | 88 | < 50 | –
3 | C=CCOCC(COS(=O)N(C)C(=O)ON=C(SC)C(=O)N(C)C)OS(=O)N(C)C(=O)ON=C(SC)C(=O)N(C)C (stereo not drawn) [XXIX, N,N'-(3-Allyloxy-1,2-propanedioxysulfinyl)-bis[S-methyl N-methylcarbamoyloxy-2-(N',N'-dimethylamino)-2-oxoethanimidothioate]] | – | 12.5 to 25 | 215 | –
4 | CNC(=O)ON=C(SC)C(=O)N(C)C [oxamyl, reference compound] | – | 3.7 | 3.6 | –
5 | 3-Methylphenyl N-(2-phenyl-1,3-dioxane-5-ylmethoxysulfinyl)-N-methylcarbamate [XVIII] | – | – | – | > 1,000 mg/kg

Source: patent US4315026A, “Alkylpolyoxysulfinyl and alkylpolythiosulfinyl derivatives of carbamate esters” (priority 1980, dated 1982)
